Experimental data as given in PMC4747102 (European journal of medicinal chemistry, 2015).

Columns and labels:
[1] = test system: MDA-MB-231 (triple negative breast cancer) cells; type: cell-based, human
[2] = test system: MCF-7 (ER+ breast cancer) cells; experiment: cells; type: cell-based, human

Q: `CC(C)CC(c1cc(O)c2c(c1O)C(=O)c1ccccc1C2=O)N(CCCl)CCCl` (stereo not shown) [5f, 2-(1-(Bis(2-chloroethyl)amino)-3-methylbutyl)-1,4-dihydroxyanthracene-9,10-dione] was tested. Which “fold stronger than compound 5b” value [1] did it give?
A: The value was “approximately 70 fold”.

Q: How did the “fold increase in inhibitory activity compared to chlorambucil” value [1] turn out when `O=C1c2ccccc2C(=O)c2c(O)c(C(c3ccccc3F)N(CCCl)CCCl)cc(O)c21` (stereo not shown) [5i, 2-((Bis(2-chloroethyl)amino) (2-fluorophenyl)methyl)-1,4-dihydroxyanthracene-9,10-dione] was run?
A: Its value is “ca. 900 fold”.

Q: With `O=C1c2ccccc2C(=O)c2c(O)c(C(c3ccc(F)cc3)N(CCCl)CCCl)cc(O)c21` (stereo not shown) [5k, 2-((Bis(2-chloroethyl)amino)(4-fluorophenyl)methyl)-1,4-dihydroxyanthracene-9,10-dione] as the compound, how does the “times more potent than chlorambucil” value [2] read?
A: The value was “over 100 times”.

Q: Which IC50 ([2]; Homo sapiens, MCF7, 120 h, read-out: IC50 MCF-7) does the source give for `COc1cccc2c1C(=O)c1c(O)c3c(c(O)c1C2=O)C[C@@](O)(C(=O)CO)C[C@@H]3O[C@H]1C[C@H](N)[C@H](O)[C@H](C)O1` [Doxorubicin, reference compound] here?
A: The IC50 was 0.294 nM.
